According to ChEMBL document CHEMBL4507292 (2021):

What was measured:
[1] = target: Receptor-interacting serine/threonine-protein kinase 2 (Homo sapiens) (UniProt O43353); conditions: Compound concentration 1000.0 nM
[2] = target: Inhibitor of nuclear factor kappa-B kinase subunit epsilon (Homo sapiens) (UniProt Q14164); conditions: Compound concentration 1000.0 nM
[3] = target: 5-hydroxytryptamine receptor 5A (Homo sapiens) (UniProt P47898); conditions: Compound concentration 10.0 uM
[4] = test system: Receptor-type tyrosine-protein kinase FLT3 (Homo sapiens), P36888 [K663Q]; conditions: Compound concentration 1000.0 nM
[5] = target: Serine/threonine-protein kinase 17A (Homo sapiens) (UniProt Q9UEE5); conditions: Compound concentration 1000.0 nM
[6] = test system: Epidermal growth factor receptor (Homo sapiens), P00533 [UNDEFINED MUTATION]; conditions: Compound concentration 1000.0 nM
[7] = target: cGMP-dependent protein kinase 1 (Homo sapiens) (UniProt Q13976); conditions: Compound concentration 1000.0 nM
[8] = test system: Tyrosine-protein kinase ABL1 (Homo sapiens), P00519 [T315I]; conditions: Compound concentration 1000.0 nM
[9] = target: Protein-tyrosine kinase 6 (Homo sapiens) (UniProt Q13882); conditions: Compound concentration 1000.0 nM
[10] = target: Serine/threonine-protein kinase 17B (Homo sapiens) (UniProt O94768); conditions: Compound concentration 1000.0 nM
[11] = target: T1, Alpha-2A adrenergic receptor (Homo sapiens) (UniProt P08913); conditions: Compound concentration 10.0 uM
T1 sequence (whole entry): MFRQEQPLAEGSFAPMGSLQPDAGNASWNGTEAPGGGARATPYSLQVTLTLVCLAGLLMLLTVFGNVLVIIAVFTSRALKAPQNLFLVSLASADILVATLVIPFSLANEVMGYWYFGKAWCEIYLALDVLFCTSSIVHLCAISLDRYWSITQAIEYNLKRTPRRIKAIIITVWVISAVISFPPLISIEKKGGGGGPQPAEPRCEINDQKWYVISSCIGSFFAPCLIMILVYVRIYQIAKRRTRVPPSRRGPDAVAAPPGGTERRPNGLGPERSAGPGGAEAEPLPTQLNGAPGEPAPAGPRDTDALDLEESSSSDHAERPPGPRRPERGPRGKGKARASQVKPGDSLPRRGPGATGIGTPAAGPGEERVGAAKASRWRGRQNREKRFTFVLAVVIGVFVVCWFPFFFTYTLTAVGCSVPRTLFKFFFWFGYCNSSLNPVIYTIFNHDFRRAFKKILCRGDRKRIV

[12] = target: Serine/threonine-protein kinase Sgk2 (Homo sapiens) (UniProt Q9HBY8); conditions: Compound concentration 1000.0 nM
[13] = test system: Phosphatidylinositol 4,5-bisphosphate 3-kinase catalytic subunit alpha isoform (Homo sapiens), P42336 [C420R]; conditions: Compound concentration 1000.0 nM
[14] = target: Ribosomal protein S6 kinase alpha-5 (Homo sapiens) (UniProt O75582); conditions: Compound concentration 1000.0 nM
[15] = target: Mitogen-activated protein kinase 6 (Homo sapiens) (UniProt Q16659); conditions: Compound concentration 1000.0 nM
[16] = target: NUAK family SNF1-like kinase 2 (Homo sapiens) (UniProt Q9H093); conditions: Compound concentration 1000.0 nM
[17] = target: Serine/threonine-protein kinase PLK1 (Homo sapiens) (UniProt P53350); conditions: Compound concentration 1000.0 nM
[18] = target: Rho-associated protein kinase 1 (Homo sapiens) (UniProt Q13464); conditions: Compound concentration 1000.0 nM
[19] = target: Myosin-IIIa (Homo sapiens) (UniProt Q8NEV4); conditions: Compound concentration 1000.0 nM
[20] = test system: Tyrosine-protein kinase ABL1 (Homo sapiens), P00519 [Y253F]; conditions: Compound concentration 1000.0 nM
[21] = target: Tyrosine-protein kinase receptor TYRO3 (Homo sapiens) (UniProt Q06418); conditions: Compound concentration 1000.0 nM
[22] = target: Serine/threonine-protein kinase 16 (Homo sapiens) (UniProt O75716); conditions: Compound concentration 1000.0 nM
[23] = target: TRAF2 and NCK-interacting protein kinase (Homo sapiens) (UniProt Q9UKE5); conditions: Compound concentration 1000.0 nM
[24] = test system: Phosphatidylinositol 4,5-bisphosphate 3-kinase catalytic subunit alpha isoform (Homo sapiens), P42336 [H1047L]; conditions: Compound concentration 1000.0 nM
[25] = target: Muscarinic acetylcholine receptor M2 (Homo sapiens) (UniProt P08172); conditions: Compound concentration 10.0 uM
[26] = target: Mitogen-activated protein kinase kinase kinase 9 (Homo sapiens) (UniProt P80192); conditions: Compound concentration 1000.0 nM
[27] = target: Serine/threonine-protein kinase pim-1 (Homo sapiens) (UniProt P11309); conditions: Compound concentration 1000.0 nM
[28] = target: Casein kinase I isoform alpha-like (Homo sapiens) (UniProt Q8N752); conditions: Compound concentration 1000.0 nM
[29] = target: Serine/threonine-protein kinase Sgk1 (Homo sapiens) (UniProt O00141); conditions: Compound concentration 1000.0 nM
[30] = target: Serine/threonine-protein kinase LATS2 (Homo sapiens) (UniProt Q9NRM7); conditions: Compound concentration 1000.0 nM
[31] = target: Mitogen-activated protein kinase kinase kinase 3 (Homo sapiens) (UniProt Q99759); conditions: Compound concentration 1000.0 nM
[32] = target: RAC-alpha serine/threonine-protein kinase (Homo sapiens) (UniProt P31749); conditions: Compound concentration 1000.0 nM
[33] = target: Ankyrin repeat and protein kinase domain-containing protein 1 (Homo sapiens) (UniProt Q8NFD2); conditions: Compound concentration 1000.0 nM
[34] = target: Phosphatidylinositol 4-phosphate 5-kinase type-1 alpha (Homo sapiens) (UniProt Q99755); conditions: Compound concentration 1000.0 nM
[35] = target: Mitogen-activated protein kinase kinase kinase 4 (Homo sapiens) (UniProt Q9Y6R4); conditions: Compound concentration 1000.0 nM
[36] = target: Protein kinase C epsilon type (Homo sapiens) (UniProt Q02156); conditions: Compound concentration 1000.0 nM
[37] = target: Sigma intracellular receptor 2 (Homo sapiens, UniProt Q5BJF2); conditions: Compound concentration 10.0 uM
[38] = target: Phosphatidylinositol 4-phosphate 5-kinase type-1 gamma (Homo sapiens) (UniProt O60331); conditions: Compound concentration 1000.0 nM

Chain of Ribosomal protein S6 kinase alpha-5 (Homo sapiens) (O75582 whole entry, looked up): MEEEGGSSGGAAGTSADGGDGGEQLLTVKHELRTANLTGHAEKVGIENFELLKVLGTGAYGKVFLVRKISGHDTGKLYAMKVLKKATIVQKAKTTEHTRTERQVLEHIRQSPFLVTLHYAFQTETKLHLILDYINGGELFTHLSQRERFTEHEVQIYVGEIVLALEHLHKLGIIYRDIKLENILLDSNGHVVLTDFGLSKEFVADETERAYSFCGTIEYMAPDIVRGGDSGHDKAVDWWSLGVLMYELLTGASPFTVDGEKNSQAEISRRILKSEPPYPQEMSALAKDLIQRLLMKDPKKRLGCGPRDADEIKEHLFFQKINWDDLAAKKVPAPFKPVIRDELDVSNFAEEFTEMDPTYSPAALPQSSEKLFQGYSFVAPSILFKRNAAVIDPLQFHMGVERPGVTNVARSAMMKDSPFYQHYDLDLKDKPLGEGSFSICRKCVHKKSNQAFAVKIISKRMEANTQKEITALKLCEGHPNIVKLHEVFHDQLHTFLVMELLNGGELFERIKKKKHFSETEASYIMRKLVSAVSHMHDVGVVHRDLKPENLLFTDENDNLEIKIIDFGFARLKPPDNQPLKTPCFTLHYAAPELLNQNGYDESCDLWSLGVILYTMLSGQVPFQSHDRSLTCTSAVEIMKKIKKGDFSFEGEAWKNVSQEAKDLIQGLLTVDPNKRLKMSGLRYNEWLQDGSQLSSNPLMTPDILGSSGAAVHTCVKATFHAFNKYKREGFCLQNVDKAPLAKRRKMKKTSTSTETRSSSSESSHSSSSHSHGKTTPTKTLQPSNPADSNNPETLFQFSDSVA
Chain of NUAK family SNF1-like kinase 2 (Homo sapiens) (Q9H093 whole entry): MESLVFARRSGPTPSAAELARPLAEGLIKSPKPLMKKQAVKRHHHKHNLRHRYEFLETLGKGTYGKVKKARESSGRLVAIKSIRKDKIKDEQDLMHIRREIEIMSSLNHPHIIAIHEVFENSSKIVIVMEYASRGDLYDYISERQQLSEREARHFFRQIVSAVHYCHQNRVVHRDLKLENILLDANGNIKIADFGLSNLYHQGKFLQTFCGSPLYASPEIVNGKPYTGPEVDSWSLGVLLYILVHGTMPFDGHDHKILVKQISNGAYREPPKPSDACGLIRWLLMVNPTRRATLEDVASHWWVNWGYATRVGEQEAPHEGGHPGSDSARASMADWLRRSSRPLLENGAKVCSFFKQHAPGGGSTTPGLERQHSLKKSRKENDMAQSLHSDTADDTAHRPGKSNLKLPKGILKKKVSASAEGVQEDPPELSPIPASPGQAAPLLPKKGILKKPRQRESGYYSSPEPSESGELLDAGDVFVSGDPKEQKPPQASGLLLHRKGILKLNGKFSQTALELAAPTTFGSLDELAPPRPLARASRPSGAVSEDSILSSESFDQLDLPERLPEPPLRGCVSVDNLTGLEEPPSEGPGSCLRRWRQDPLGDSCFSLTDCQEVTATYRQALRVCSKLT
Chain of Receptor-interacting serine/threonine-protein kinase 2 (Homo sapiens) (O43353 whole entry): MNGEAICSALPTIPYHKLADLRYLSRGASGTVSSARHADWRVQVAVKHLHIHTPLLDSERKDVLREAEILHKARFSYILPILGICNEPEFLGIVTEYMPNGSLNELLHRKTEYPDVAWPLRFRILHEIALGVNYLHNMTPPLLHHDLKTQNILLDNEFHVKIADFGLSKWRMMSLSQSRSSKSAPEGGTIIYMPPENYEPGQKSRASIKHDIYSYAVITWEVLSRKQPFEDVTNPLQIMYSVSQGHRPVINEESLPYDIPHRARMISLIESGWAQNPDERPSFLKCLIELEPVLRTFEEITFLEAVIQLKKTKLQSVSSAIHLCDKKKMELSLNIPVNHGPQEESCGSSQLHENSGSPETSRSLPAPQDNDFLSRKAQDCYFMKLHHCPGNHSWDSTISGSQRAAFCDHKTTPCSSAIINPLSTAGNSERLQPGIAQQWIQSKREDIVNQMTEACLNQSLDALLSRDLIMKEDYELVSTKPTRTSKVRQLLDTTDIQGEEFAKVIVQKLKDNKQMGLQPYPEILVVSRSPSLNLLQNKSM
Chain of Phosphatidylinositol 4,5-bisphosphate 3-kinase catalytic subunit alpha isoform (Homo sapiens), P42336 [H1047L] (P42336 whole entry H1047L, canonical isoform): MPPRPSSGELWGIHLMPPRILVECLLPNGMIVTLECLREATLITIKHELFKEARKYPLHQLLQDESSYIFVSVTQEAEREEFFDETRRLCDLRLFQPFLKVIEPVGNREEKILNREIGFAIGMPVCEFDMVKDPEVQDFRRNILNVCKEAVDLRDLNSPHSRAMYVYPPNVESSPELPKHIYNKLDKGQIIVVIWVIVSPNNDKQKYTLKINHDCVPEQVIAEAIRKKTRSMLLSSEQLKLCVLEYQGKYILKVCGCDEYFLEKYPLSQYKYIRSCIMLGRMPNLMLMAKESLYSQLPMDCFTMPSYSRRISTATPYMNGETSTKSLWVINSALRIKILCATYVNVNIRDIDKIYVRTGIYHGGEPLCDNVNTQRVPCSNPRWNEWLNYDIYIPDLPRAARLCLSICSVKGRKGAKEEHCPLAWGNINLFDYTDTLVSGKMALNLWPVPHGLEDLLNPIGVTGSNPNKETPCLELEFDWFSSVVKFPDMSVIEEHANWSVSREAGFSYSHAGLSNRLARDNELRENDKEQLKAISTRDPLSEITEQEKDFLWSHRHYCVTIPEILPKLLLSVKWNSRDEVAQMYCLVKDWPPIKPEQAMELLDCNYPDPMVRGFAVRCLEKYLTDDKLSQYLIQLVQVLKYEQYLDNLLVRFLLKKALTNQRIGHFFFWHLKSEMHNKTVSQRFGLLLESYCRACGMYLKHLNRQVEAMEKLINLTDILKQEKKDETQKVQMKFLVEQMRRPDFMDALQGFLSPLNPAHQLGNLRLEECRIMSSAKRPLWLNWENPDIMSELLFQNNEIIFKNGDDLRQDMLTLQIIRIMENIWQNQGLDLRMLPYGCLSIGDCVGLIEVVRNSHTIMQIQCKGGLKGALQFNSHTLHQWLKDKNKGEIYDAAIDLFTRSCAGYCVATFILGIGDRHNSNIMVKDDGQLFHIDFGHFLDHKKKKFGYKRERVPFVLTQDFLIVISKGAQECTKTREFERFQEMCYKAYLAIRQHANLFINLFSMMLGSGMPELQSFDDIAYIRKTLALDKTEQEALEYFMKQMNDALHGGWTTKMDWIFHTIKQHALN
Chain of Protein-tyrosine kinase 6 (Homo sapiens) (Q13882 whole entry, looked up): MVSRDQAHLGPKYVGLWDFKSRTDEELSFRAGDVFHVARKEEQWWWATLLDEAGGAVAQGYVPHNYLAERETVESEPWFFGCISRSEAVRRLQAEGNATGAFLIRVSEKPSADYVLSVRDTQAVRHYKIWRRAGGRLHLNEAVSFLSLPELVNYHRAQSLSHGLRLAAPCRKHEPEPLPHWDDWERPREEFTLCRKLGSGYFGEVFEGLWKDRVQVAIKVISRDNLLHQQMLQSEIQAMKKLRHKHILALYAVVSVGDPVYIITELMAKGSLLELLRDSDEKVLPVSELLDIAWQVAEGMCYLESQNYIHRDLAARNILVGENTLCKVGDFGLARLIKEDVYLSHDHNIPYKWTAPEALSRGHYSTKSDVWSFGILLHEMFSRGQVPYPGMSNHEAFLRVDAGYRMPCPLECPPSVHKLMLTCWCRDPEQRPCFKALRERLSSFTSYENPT
Chain of Phosphatidylinositol 4,5-bisphosphate 3-kinase catalytic subunit alpha isoform (Homo sapiens), P42336 [C420R] (P42336 whole entry C420R, canonical isoform): as the sequence (P42336 whole entry H1047L, canonical isoform) above, with C420R, L1047H counted along it
Chain of Muscarinic acetylcholine receptor M2 (Homo sapiens) (P08172 whole entry): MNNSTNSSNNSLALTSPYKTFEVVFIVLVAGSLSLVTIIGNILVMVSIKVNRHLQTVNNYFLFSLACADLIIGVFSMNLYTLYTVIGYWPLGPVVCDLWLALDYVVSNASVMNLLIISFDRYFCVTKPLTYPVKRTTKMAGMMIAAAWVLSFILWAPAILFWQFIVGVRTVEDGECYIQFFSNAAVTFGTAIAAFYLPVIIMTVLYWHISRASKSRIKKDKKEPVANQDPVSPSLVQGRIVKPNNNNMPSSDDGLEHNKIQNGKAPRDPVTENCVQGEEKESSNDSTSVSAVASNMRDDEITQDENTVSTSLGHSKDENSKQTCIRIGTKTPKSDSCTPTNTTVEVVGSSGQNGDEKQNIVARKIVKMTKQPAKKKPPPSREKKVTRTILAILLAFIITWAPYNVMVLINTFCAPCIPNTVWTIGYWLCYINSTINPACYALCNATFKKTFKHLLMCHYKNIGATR

Row | Compound | residual activity [1] [%] | residual activity [2] [%] | inhibition [3] [%] | residual activity [4] [%] | residual activity [5] [%] | residual activity [6] [%] | residual activity [7] [%] | residual activity [8] [%] | residual activity [9] [%] | residual activity [10] [%] | inhibition [11] [%] | residual activity [12] [%] | residual activity [13] [%] | residual activity [14] [%] | residual activity [15] [%] | residual activity [16] [%] | residual activity [17] [%] | residual activity [18] [%] | residual activity [19] [%] | residual activity [20] [%] | other results
1 | Cc1c(C(=O)O)cc(-c2ccc(C3CCNCC3)cc2)c2ccc(-c3ccc(C(F)(F)F)cc3)cc12 [PPTN-NC] | 100 | 100 | -0.81 | 100 | 99 | 100 | 97 | 82 | 100 | 100 | 34.8 | 100 | 100 | 100 | 100 | 100 | 94 | 100 | 100 | 87 | residual activity [21]: 100%; residual activity [22]: 100%; residual activity [23]: 100%; residual activity [24]: 100%; inhibition [25]: 19.3%; residual activity [26]: 92%; residual activity [27]: 100%; residual activity [28]: 100%; residual activity [29]: 100%; residual activity [30]: 100%; residual activity [31]: 98%; residual activity [32]: 100%; residual activity [33]: 100%; residual activity [34]: 70%; residual activity [35]: 100%; residual activity [36]: 100%; inhibition [37]: 92.7%; residual activity [38]: 98%
2 | O=C(O)c1cc(-c2ccc(C3CCNCC3)cc2)c2ccc(-c3ccc(C(F)(F)F)cc3)cc2c1 [PPTN] | 100 | 100 | 4.98 | 100 | 100 | 100 | 100 | 74 | 100 | 100 | 38.2 | 100 | 95 | 100 | 100 | 100 | 88 | 100 | 100 | 73 | residual activity [21]: 100%; residual activity [22]: 100%; residual activity [23]: 100%; residual activity [24]: 100%; inhibition [25]: 10.9%; residual activity [26]: 100%; residual activity [27]: 100%; residual activity [28]: 100%; residual activity [29]: 100%; residual activity [30]: 100%; residual activity [31]: 83%; residual activity [32]: 99%; residual activity [33]: 100%; residual activity [34]: 78%; residual activity [35]: 100%; residual activity [36]: 100%; inhibition [37]: 95.6%; residual activity [38]: 100%
